The source of these data is patent US4507485A, “3,4-Disubstituted-1,2,5-oxadiazoles having histamine H2 -receptor antagonist activity” (Bristol-Myers Company, priority 1984, dated 1985).

For data set [1], the system named is gastric secretion (Heidenhain pouch dog). As to the kind of experiment: Gastric antisecretory activity in the Heidenhain pouch dog. The format is in vivo, dog (female). Conditions: iv; for ED50: Canis lupus familiaris, histamine infusion. On the procedure: Prior to surgery, hematology and blood chemistry profiles are obtained and an assessment made as to the general health of selected female dogs. Dogs are vaccinated with Tissue Vax 5 (DHLP--Pitman-Moore) and housed in general animal quarters for four weeks' observation so incipient diseases may become apparent. Dogs are fasted with water ad libitum 24 hours prior to surgery.
Anesthesia is induced with Sodium Pentothal (Abbott) 25-30 mg/kg iv. Subsequent anesthesia is maintained with methoxyflurane (Pitman-Moore). A mid-line linea alba incision from xiphoid to umbilicus provides good exposure and ease of closure. The stomach is pulled up into the operative field, the greater curvature stretched out at multiple points and clamps placed along the selected line of incision. The pouch is made from the corpus of the stomach so that true parietal cell juice is obtained. About 30% of the corpus volume is resected. […]
Ninety minutes' infusion are allowed for the dogs to reach a steady state of acid output. […] Each sample is measured to the nearest 0.5 ml and titratable acidity is determined by titrating a 1 ml sample to pH 7.0 with 0.2N NaOH, using an Autoburet and an electrometric pH meter (Radiometer). Titratable acid output is calculated in microequivalents by multiplying the volume in milliliters by the acid concentration in milliequivalents per liter.
Results are expressed as percent inhibition relative to control readings and the response is the average for five days at that dose level.

A further data set concerns gastric secretion. The settings on record: cited from earlier work.
The conditions of data set [2]: in vivo; cited from earlier work.
The next data set deals with histamine H2-receptor. Conditions: cited from earlier work; for histamine H2-antagonist potency/effectiveness: compared with burimamide or metiamide.
Another data set relates to peptic ulcer disease. The settings on record: clinical evaluation; cited from earlier work.
The conditions of data set [3]: in vivo; cited from earlier work. The source holds these as a separate data set.
In data set [4] the test system is gastric secretion (gastric fistula rat); histamine H2-receptor. As to the kind of experiment: Gastric antisecretory activity in the gastric fistula rat. It is filed as in vivo, rat (male Long Evans). The settings on record: sc; for Potency Ratio: relative to cimetidine = 1.0. On the procedure:
Male Long Evans rats weighing about 240-260 grams at the time of cannula implantation are used. […] The fistula components are designed and the operative procedure is carried out exactly as described in the above reference. Post operatively the animals are individually housed in solid bottom cages with sawdust and are allowed food and water ad libitum throughout the entire recovery period. Animals are not used for test purposes for at least 15 days after the operative procedure. The animals are fasted but allowed water ad libitum for 20 hours before the testing procedure is to begin. […] The catheter is then screwed into the cannula in place of the plugging screw and the rat is placed in a clear plastic rectangular cage measuring 40 cm long, 15 cm wide and 13 cm high. The bottom of the cage has a slit approximately 1.5 cm wide and 25 cm long running down the center to accommodate the catheter which hangs through it. […] Chem. Path. […] Gastric secretions collected during the first hour after washing the stomach are discarded as they may be contaminated. For oral evaluation, the catheter is then removed from the cannula and replaced with the plugging screw. […] After this time the plugging screw is removed and replaced with a catheter to which a small plastic vial has been attached to collect the gastric secretions. […] The secretions in the second sample are compared to those of the control sample in order to determine the effects of the test drug. […] Results are expressed as percent inhibition relative to control readings. Dose response curves are constructed and ED50 values are calculated by regression analyses. At least three rats are used at each dosage level and a minimum of three dosage levels are utilized for determination of a dose response curve.

A word on the ED50: it is the dose at which the effect has come halfway, by size or by number of responders. Low readings indicate an effect at a small dose, high ones a need for a large dose.

Regarding `CNC(=C[N+](=O)[O-])NCCSCc1ccc(CN(C)C)o1` [Ranitidine], in data set [1], the ED50 worked out at 0.054 mg/kg.

On to `CNC(=S)NCCCCc1cnc[nH]1` [Burimamide], for which the “inhibition of gastric secretion” value in the data set on gastric secretion (animals, including man) is on record as “inhibits gastric secretion in animals, including man”. Besides, the oral absorption entry in data set [2] is listed as “poor”. Further, in the data set on histamine H2-receptor (clinical), the “clinical effectiveness as histamine H2-receptor antagonist” value is “first clinically effective”.

Consider `CN=C(NC#N)NCCSCc1[nH]cnc1C` [Cimetidine], for which, in the data set with peptic ulcer disease, the “therapeutic effect in peptic ulcer disease” value is reported as “effective therapeutic agent in the treatment of peptic ulcer disease”. Also, the “histamine H2-antagonist potency/effectiveness” value in the data set on histamine H2-receptor is on record as “as effective an histamine H2 -antagonist as metiamide”. For the same compound, the “toxicity (agranulocytosis)” value in data set [3] is “without producing agranulocytosis”.

With `CN(C)Cc1ccc(CSCCNc2nonc2N)o1` [Example 2, 3-Amino-4-{2-[(5-dimethylaminomethyl-2-furyl)methylthio]ethylamino}-1,2,5-oxadiazole], in data set [4], the 50% effect level (ED50) was put at a dose of 5 µmol/kg and the “Potency Ratio” value worked out at 0.70.

For the compound `Nc1nonc1NCCCOc1cccc(CN2CCCCC2)c1` [Example 1, 3-Amino-4-[3-(3-piperidinomethylphenoxy)propylamino]-1,2,5-oxadiazole], the median effective dose (ED50) in data set [1] is 0.03 mg/kg; in data set [4] it was 0.18 µmol/kg. In addition, the results for the “Potency Ratio” value in data set [1] (relative to ranitidine = 1.0) and in data set [4] were 1.8 and 19.3, respectively.

With `CNC(=S)NCCSCc1[nH]cnc1C` [Metiamide], in the data set with gastric secretion (oral, man), the “oral activity in man” value was “orally active in man”. For the same compound, the “histamine H2-antagonist potency/effectiveness” value in the data set on histamine H2-receptor is “more potent than burimamide”. The “toxicity (agranulocytosis)” value in data set [3] is given as “toxicity (agranulocytosis)”.
